Data published in paper PMC9238736 (Journal of the American Heart Association: Cardiovascular …, 2022).

Columns and labels:
hKir2.2 = target: T1, hKir2.2 (Homo sapiens, UniProt Q14500); assay: whole-cell patch clamp, hyperpolarizing ramp; type: cell-based
T1 sequence (Q14500 1-433): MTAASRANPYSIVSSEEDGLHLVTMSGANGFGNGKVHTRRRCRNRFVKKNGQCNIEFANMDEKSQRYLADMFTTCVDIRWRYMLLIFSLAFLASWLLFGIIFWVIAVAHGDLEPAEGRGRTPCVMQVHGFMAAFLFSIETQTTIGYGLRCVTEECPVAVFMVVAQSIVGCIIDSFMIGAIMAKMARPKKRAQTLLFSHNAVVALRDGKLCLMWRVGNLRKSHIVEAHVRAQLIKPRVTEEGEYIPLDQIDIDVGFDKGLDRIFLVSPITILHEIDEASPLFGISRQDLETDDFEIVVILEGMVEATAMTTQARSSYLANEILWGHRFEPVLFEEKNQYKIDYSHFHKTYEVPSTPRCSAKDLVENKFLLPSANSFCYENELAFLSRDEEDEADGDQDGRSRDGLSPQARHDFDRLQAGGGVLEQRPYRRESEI

hKir2.1 = target: T2, hKir2.1 (Homo sapiens, UniProt P63252); assay: whole-cell patch clamp, hyperpolarizing ramp, […] °C
T2 sequence (P63252 1-427): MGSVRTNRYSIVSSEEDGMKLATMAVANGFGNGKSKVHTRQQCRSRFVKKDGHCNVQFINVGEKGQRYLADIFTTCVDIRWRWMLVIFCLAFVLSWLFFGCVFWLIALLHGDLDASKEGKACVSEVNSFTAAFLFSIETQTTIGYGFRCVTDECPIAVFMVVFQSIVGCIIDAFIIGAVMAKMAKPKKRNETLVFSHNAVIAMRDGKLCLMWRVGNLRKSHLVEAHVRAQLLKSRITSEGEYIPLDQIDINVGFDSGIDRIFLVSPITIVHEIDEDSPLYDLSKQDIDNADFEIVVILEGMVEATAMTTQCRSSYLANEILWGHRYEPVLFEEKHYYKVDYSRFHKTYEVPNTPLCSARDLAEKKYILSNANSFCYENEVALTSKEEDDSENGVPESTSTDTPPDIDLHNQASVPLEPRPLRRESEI

[1] = target: human ether‐à‐go‐go–related gene (hERG) channel (Homo sapiens, UniProt Q12809)
Sequence of human ether‐à‐go‐go–related gene (hERG) channel (Q12809 whole entry): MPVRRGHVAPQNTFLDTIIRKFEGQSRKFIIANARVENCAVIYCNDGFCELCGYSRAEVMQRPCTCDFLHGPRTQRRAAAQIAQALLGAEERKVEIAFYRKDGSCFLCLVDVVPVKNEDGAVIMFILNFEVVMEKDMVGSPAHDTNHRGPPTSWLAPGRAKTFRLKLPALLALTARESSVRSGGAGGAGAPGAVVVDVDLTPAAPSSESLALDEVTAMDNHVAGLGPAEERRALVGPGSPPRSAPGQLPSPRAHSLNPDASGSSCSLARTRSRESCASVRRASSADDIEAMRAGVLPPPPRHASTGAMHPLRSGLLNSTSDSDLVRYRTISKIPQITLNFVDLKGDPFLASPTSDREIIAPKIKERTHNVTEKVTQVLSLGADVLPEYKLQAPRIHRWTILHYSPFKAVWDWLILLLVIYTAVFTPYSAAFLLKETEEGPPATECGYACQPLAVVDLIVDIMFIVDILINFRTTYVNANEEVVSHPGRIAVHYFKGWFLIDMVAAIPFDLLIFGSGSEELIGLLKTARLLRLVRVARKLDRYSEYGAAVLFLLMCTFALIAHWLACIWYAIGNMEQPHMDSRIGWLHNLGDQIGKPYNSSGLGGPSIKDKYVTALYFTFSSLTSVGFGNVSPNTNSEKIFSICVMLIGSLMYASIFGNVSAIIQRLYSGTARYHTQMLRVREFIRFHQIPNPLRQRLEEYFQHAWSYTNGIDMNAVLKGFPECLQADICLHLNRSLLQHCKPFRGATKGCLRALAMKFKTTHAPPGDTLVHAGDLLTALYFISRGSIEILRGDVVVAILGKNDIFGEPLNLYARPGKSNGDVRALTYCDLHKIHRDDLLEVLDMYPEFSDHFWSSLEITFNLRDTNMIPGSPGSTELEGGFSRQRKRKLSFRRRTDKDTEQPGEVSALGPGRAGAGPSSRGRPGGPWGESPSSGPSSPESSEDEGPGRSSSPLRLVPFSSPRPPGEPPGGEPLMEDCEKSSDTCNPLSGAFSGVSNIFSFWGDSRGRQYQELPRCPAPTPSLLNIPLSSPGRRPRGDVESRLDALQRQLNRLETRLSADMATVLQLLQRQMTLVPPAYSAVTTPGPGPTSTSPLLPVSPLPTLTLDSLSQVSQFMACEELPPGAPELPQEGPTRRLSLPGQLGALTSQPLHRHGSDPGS

Row | SMILES | IC50 (hKir2.2) | IC50 (hKir2.1) | IC50 [1]
1 | CN(C)C(=O)C(CCN1CCC(O)(c2ccc(Cl)cc2)CC1)(c1ccccc1)c1ccccc1 [loperamide] | 1200 nM | – | –
2 | CCC(=O)C(CC(C)N(C)C)(c1ccccc1)c1ccccc1 (racemic) [methadone] | – | 2900 nM | 2900 nM
